ChEMBL document CHEMBL4371002 (J Med Chem, 2018)
In brackets after ≈: the same amount, converted by molar mass. Square brackets hold non-standard residues; d marks the D form. Peptide text beside a SMILES is read from it. * marks the point of attachment. X1 = CC(C)[C@H](/C=C(\Cl)[C@H](C)N)C(=O)*; X3 = CC(C)[C@H](/C=C(\F)[C@H](C)N)C(=O)*; Dip = N[C@H](C(=O)O)C(c1ccccc1)c1ccccc1; X4 = C[C@H](/C=C(\Cl)[C@H](C)N)C(=O)*; X2 = C[C@H](/C=C(\F)[C@H](C)N)C(=O)*; Abu(4,4-F2) = N[C@@H](CC(F)F)C(=O)O; PhLac = O=C(O)[C@@H](O)Cc1ccccc1; Cha = N[C@@H](CC1CCCCC1)C(=O)O; Abu = CC[C@H](N)C(=O)O

Columns and labels:
[1] = biological target: Delta-type opioid receptor (Homo sapiens, UniProt P41143)
Sequence of Delta-type opioid receptor (P41143 whole entry): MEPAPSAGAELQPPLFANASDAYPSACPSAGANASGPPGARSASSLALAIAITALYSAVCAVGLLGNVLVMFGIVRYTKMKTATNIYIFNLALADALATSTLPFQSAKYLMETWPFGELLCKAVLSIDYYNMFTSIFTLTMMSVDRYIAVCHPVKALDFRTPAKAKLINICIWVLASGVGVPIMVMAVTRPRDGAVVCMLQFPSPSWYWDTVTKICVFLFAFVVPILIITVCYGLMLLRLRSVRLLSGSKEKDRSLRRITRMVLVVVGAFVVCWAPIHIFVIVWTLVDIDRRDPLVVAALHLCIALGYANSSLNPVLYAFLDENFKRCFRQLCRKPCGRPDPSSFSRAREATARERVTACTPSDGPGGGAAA

[2] = biological target: NS3 protease (Hepacivirus C, UniProt C1KIQ2); parameters: species or system Hepacivirus hominis
Sequence of NS3 protease (C1KIQ2 whole entry): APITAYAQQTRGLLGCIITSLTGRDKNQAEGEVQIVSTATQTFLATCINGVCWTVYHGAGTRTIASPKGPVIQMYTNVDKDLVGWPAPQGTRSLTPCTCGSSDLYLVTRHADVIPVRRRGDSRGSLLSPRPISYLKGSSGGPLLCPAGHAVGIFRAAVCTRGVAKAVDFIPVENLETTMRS

[3] = biological target: T1, Parathyroid hormone/parathyroid hormone-related peptide receptor (Homo sapiens, UniProt Q03431)
T1 sequence (Q03431 whole entry): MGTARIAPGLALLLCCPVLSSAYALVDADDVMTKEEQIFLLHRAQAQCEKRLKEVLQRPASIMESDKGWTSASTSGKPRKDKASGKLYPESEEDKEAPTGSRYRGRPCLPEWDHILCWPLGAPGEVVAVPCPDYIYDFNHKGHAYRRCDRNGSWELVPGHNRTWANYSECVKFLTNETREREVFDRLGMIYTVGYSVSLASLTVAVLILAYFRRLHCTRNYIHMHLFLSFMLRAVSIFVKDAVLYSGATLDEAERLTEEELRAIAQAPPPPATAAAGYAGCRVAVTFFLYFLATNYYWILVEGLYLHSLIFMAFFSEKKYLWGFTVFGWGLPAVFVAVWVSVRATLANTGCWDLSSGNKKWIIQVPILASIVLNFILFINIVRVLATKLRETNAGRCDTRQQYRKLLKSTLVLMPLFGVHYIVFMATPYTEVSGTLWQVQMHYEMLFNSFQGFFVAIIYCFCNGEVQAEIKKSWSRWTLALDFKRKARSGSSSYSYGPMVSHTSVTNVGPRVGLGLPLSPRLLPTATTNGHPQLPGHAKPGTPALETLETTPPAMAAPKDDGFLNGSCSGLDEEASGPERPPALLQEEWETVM

[4] = biological target: T1, Parathyroid hormone/parathyroid hormone-related peptide receptor; assay: biochemical
[5] = biological target: Trypanothione reductase (Trypanosoma cruzi) (UniProt P28593)
Sequence of Trypanothione reductase (Trypanosoma cruzi) (P28593 whole entry, looked up): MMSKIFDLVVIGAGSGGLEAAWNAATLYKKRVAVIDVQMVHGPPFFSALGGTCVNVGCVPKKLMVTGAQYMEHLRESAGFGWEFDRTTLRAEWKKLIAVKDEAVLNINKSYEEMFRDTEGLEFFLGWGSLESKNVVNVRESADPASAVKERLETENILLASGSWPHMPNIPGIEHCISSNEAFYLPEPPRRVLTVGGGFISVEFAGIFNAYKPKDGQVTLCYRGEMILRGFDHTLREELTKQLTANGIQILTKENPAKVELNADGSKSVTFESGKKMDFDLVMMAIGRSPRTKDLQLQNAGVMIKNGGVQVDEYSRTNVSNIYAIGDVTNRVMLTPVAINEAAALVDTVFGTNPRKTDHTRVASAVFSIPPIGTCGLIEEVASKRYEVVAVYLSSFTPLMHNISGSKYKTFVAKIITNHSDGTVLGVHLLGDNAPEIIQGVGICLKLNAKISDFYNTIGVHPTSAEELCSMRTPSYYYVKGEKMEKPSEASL

[6] = biological target: Bacterial 70S ribosome; assay type: subcellular, Bacteria
[7] = tested on: Staphylococcus hominis; assay: microbe, parasite or virus in culture; assay type: functional; settings: IP8203
[8] = biological target: T2, Steryl-sulfatase (Homo sapiens, UniProt P08842)
T2 sequence (P08842 whole entry): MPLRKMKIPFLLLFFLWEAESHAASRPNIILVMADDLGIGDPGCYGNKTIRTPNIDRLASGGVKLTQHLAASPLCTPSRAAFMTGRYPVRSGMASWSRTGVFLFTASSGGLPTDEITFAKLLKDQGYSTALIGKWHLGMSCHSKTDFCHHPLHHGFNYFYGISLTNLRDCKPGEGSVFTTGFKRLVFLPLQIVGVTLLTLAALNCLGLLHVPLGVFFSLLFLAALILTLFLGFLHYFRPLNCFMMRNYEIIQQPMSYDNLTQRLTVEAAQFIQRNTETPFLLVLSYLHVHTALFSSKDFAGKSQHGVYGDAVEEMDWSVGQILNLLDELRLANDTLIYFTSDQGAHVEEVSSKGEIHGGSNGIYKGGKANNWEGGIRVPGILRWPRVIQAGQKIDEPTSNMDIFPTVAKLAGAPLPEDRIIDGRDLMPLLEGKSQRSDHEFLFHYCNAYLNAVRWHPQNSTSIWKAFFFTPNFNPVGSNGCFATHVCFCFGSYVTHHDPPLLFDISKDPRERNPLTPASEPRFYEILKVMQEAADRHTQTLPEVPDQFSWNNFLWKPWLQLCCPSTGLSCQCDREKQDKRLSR

## CC(C)C[C@H](NC(=O)[C@H](Cc1ccccc1)NC(=S)CNC(=O)CNC(=O)[C@@H](N)Cc1ccc(O)cc1)C(=O)O
[1]
  Ki: 47 nM

## CC(=O)N[C@@H](CC(=O)O)C(=O)N[C@@H](CCC(=O)O)C(=O)N[C@H](C(=O)N[C@@H](CCC(=O)O)C(=O)N[C@@H](CC1CCCCC1)C(=O)N[C@@H](CC(F)F)C(=O)O)C(c1ccccc1)c1ccccc1 (Ac-DE[Dip]E[Cha][Abu(4,4-F2)]-OH)
[2]
  Ki: 30 nM

## CC[C@H](C)[C@H](NC(=O)[C@H](CCC(=O)O)NC(=O)[C@H](CO)NC(=O)[C@H](C)/C=C(\F)[C@H](C)N)C(=O)N[C@@H](CCC(N)=O)C(=O)N[C@@H](CC(C)C)C(=O)N[C@@H](CCSC)C(=O)N[C@@H](Cc1c[nH]cn1)C(=O)N[C@@H](CC(N)=O)C(=O)N[C@@H](CC(C)C)C(=O)NCC(=O)N[C@@H](CCCCN)C(=O)N[C@@H](Cc1c[nH]cn1)C(=O)N[C@@H](CC(C)C)C(=O)N[C@@H](CC(N)=O)C(=O)N[C@@H](CO)C(=O)N[C@@H](CCSC)C(=O)N[C@@H](CCC(=O)O)C(=O)N[C@@H](CCCN=C(N)N)C(=O)N[C@H](C(=O)N[C@@H](CCC(=O)O)C(=O)N[C@@H](Cc1c[nH]c2ccccc12)C(=O)N[C@@H](CC(C)C)C(=O)N[C@@H](CCCN=C(N)N)C(=O)N[C@@H](CCCCN)C(=O)N[C@@H](CCCCN)C(=O)N[C@@H](CC(C)C)C(=O)N[C@@H](CCC(N)=O)C(=O)N[C@@H](CC(=O)O)C(=O)N[C@H](C(=O)N[C@@H](Cc1c[nH]cn1)C(=O)N[C@@H](CC(N)=O)C(=O)N[C@@H](Cc1ccccc1)C(=O)N[C@H](C(=O)N[C@@H](C)C(N)=O)C(C)C)C(C)C)C(C)C (X2-SEIQLMHNLGKHLNSMERVEWLRKKLQDVHNFVA-NH2)
[3]
  EC50: 9.1 nM
[4]
  Kd: 6.31 nM

## CC(C)(C)c1ccc(Nc2ccc(F)cc2NCCC[N+](C)(C)Cc2ccc(Cl)c(Cl)c2)cc1
[5]
  Kic: 84 µM

## CC1=C\[C@@H](O)CC(=O)Cc2nc(co2)C(=O)N2CCC[C@@H]2C(=O)O[C@H](C(C)C)[C@H](C)/C=C/C(=O)NC\C=C\1 [VOLPRISTIN]
[6]
  IC50: 100 nM
[7]
  MIC: 4 µg/mL (≈ 7.58 µM)

## CC[C@H](C)[C@H](NC(=O)[C@H](CCC(=O)O)NC(=O)[C@H](CO)NC(=O)[C@H](C)/C=C(\Cl)[C@H](C)N)C(=O)N[C@@H](CCC(N)=O)C(=O)N[C@@H](CC(C)C)C(=O)N[C@@H](CCSC)C(=O)N[C@@H](Cc1c[nH]cn1)C(=O)N[C@@H](CC(N)=O)C(=O)N[C@@H](CC(C)C)C(=O)NCC(=O)N[C@@H](CCCCN)C(=O)N[C@@H](Cc1c[nH]cn1)C(=O)N[C@@H](CC(C)C)C(=O)N[C@@H](CC(N)=O)C(=O)N[C@@H](CO)C(=O)N[C@@H](CCSC)C(=O)N[C@@H](CCC(=O)O)C(=O)N[C@@H](CCCN=C(N)N)C(=O)N[C@H](C(=O)N[C@@H](CCC(=O)O)C(=O)N[C@@H](Cc1c[nH]c2ccccc12)C(=O)N[C@@H](CC(C)C)C(=O)N[C@@H](CCCN=C(N)N)C(=O)N[C@@H](CCCCN)C(=O)N[C@@H](CCCCN)C(=O)N[C@@H](CC(C)C)C(=O)N[C@@H](CCC(N)=O)C(=O)N[C@@H](CC(=O)O)C(=O)N[C@H](C(=O)N[C@@H](Cc1c[nH]cn1)C(=O)N[C@@H](CC(N)=O)C(=O)N[C@@H](Cc1ccccc1)C(=O)N[C@H](C(=O)N[C@@H](C)C(N)=O)C(C)C)C(C)C)C(C)C (X4-SEIQLMHNLGKHLNSMERVEWLRKKLQDVHNFVA-NH2)
[3]
  EC50: 5.5 nM
[4]
  Kd: 1.26 nM

## CC(=O)N[C@@H](CC(=O)O)C(=O)N[C@@H](CCC(=O)O)C(=O)N[C@H](C(=O)N[C@@H](CCC(=O)O)C(=O)N[C@@H](CC1CCCCC1)C(=O)N[C@@H](CS)C(=O)O)C(c1ccccc1)c1ccccc1 (Ac-DE[Dip]E[Cha]C-OH)
[2]
  Ki: 40 nM

## C[N+](C)(CCCNc1cc(F)ccc1Nc1ccc(C(F)(F)F)cc1)Cc1ccc(Cl)c(Cl)c1
[5]
  Kic: 24 µM

## CC1=C\[C@@H](O)C[C@@H](F)Cc2nc(co2)C(=O)N2CCC[C@@H]2C(=O)O[C@H](C(C)C)[C@H](C)/C=C/C(=O)NC\C=C\1
[6]
  IC50: 60 nM
[7]
  MIC: 0.25 µg/mL (≈ 0.47 µM)

## CC[C@H](C)[C@H](NC(=O)[C@H](CCC(=O)O)NC(=O)[C@H](CO)NC(=O)[C@@H](/C=C(\F)[C@H](C)N)C(C)C)C(=O)N[C@@H](CCC(N)=O)C(=O)N[C@@H](CC(C)C)C(=O)N[C@@H](CCSC)C(=O)N[C@@H](Cc1c[nH]cn1)C(=O)N[C@@H](CC(N)=O)C(=O)N[C@@H](CC(C)C)C(=O)NCC(=O)N[C@@H](CCCCN)C(=O)N[C@@H](Cc1c[nH]cn1)C(=O)N[C@@H](CC(C)C)C(=O)N[C@@H](CC(N)=O)C(=O)N[C@@H](CO)C(=O)N[C@@H](CCSC)C(=O)N[C@@H](CCC(=O)O)C(=O)N[C@@H](CCCN=C(N)N)C(=O)N[C@H](C(=O)N[C@@H](CCC(=O)O)C(=O)N[C@@H](Cc1c[nH]c2ccccc12)C(=O)N[C@@H](CC(C)C)C(=O)N[C@@H](CCCN=C(N)N)C(=O)N[C@@H](CCCCN)C(=O)N[C@@H](CCCCN)C(=O)N[C@@H](CC(C)C)C(=O)N[C@@H](CCC(N)=O)C(=O)N[C@@H](CC(=O)O)C(=O)N[C@H](C(=O)N[C@@H](Cc1c[nH]cn1)C(=O)N[C@@H](CC(N)=O)C(=O)N[C@@H](Cc1ccccc1)C(=O)N[C@H](C(=O)N[C@@H](C)C(N)=O)C(C)C)C(C)C)C(C)C (X3-SEIQLMHNLGKHLNSMERVEWLRKKLQDVHNFVA-NH2)
[3]
  EC50: 4.4 nM
[4]
  Kd: 1.26 nM

## CC[C@H](C)[C@H](NC(=O)[C@H](CCC(=O)O)NC(=O)[C@H](CO)NC(=O)[C@@H](/C=C(\Cl)[C@H](C)N)C(C)C)C(=O)N[C@@H](CCC(N)=O)C(=O)N[C@@H](CC(C)C)C(=O)N[C@@H](CCSC)C(=O)N[C@@H](Cc1c[nH]cn1)C(=O)N[C@@H](CC(N)=O)C(=O)N[C@@H](CC(C)C)C(=O)NCC(=O)N[C@@H](CCCCN)C(=O)N[C@@H](Cc1c[nH]cn1)C(=O)N[C@@H](CC(C)C)C(=O)N[C@@H](CC(N)=O)C(=O)N[C@@H](CO)C(=O)N[C@@H](CCSC)C(=O)N[C@@H](CCC(=O)O)C(=O)N[C@@H](CCCN=C(N)N)C(=O)N[C@H](C(=O)N[C@@H](CCC(=O)O)C(=O)N[C@@H](Cc1c[nH]c2ccccc12)C(=O)N[C@@H](CC(C)C)C(=O)N[C@@H](CCCN=C(N)N)C(=O)N[C@@H](CCCCN)C(=O)N[C@@H](CCCCN)C(=O)N[C@@H](CC(C)C)C(=O)N[C@@H](CCC(N)=O)C(=O)N[C@@H](CC(=O)O)C(=O)N[C@H](C(=O)N[C@@H](Cc1c[nH]cn1)C(=O)N[C@@H](CC(N)=O)C(=O)N[C@@H](Cc1ccccc1)C(=O)N[C@H](C(=O)N[C@@H](C)C(N)=O)C(C)C)C(C)C)C(C)C (X1-SEIQLMHNLGKHLNSMERVEWLRKKLQDVHNFVA-NH2)
[3]
  EC50: 7.9 nM
[4]
  Kd: 1.26 nM

## CC1=C\[C@@H](O)C[C@@H](O)Cc2nc(co2)C(=O)N2CCC[C@@H]2C(=O)O[C@H](C(C)C)[C@H](C)/C=C/C(=O)NC\C=C\1
[6]
  IC50: 50 nM
[7]
  MIC: 1 µg/mL (≈ 1.89 µM)

## CC1=C\[C@@H](O)C[C@H](O)Cc2nc(co2)C(=O)N2CCC[C@@H]2C(=O)O[C@H](C(C)C)[C@H](C)/C=C/C(=O)NC\C=C\1
[6]
  IC50: 6000 nM
[7]
  MIC: 32 µg/mL (≈ 60.4 µM)

## CC[C@H](NC(=O)[C@H](CC1CCCCC1)NC(=O)[C@H](CCC(=O)O)NC(=O)[C@@H](NC(=O)[C@H](CCC(=O)O)NC(=O)[C@H](CC(=O)O)NC(C)=O)C(c1ccccc1)c1ccccc1)C(=O)O (Ac-DE[Dip]E[Cha][Abu]-OH)
[2]
  Ki: 700 nM

## CC(C)C[C@H](NC(=O)[C@H](Cc1ccccc1)OC(=O)CNC(=O)CNC(=O)[C@@H](N)Cc1ccc(O)cc1)C(=O)O (H-YGG[PhLac]L-OH)
[1]
  Ki: 34 nM

## C[C@]12CC[C@@H]3c4ccc(CS(N)(=O)=O)cc4CC[C@H]3[C@@H]1CCC2=O
[8]
  Ki: 350000 nM

## CC1=C\[C@@H](O)C[C@H](F)Cc2nc(co2)C(=O)N2CCC[C@@H]2C(=O)O[C@H](C(C)C)[C@H](C)/C=C/C(=O)NC\C=C\1
[6]
  IC50: 500 nM
[7]
  MIC: 8 µg/mL (≈ 15 µM)

## C[N+](C)(CCCNc1cc(F)ccc1Nc1ccc(S(F)(F)(F)(F)F)cc1)Cc1ccc(Cl)c(Cl)c1
[5]
  Kic: 28 µM
